The values below come from patent US8759504B2, “Cholinergic/serotoninergic receptor and uses thereof” (AbbVie Inc., priority 2007, dated 2014).

Common to all, as to format: cell-based
Test [1] has as its target T1, Chimera 1 (Homo sapiens, UniProt P36544, M226I/T225V). Kind of test: Two electrode voltage clamp in Xenopus oocytes (POETs), agonist and modulator responses. Set-up: expressed in transfected cells; host or cells: Xenopus laevis oocytes (transient, A1). On the technique in general: In two-electrode clamp one electrode senses voltage and the other passes current.
Test [2] deals with T2, wild-type α7 nicotinic acetylcholine receptor (Homo sapiens, UniProt P36544).
T2 construct: expressed in transfected cells; host or cells: Xenopus laevis oocytes
Kind of test: Two electrode voltage clamp in Xenopus oocytes, agonist and modulator responses.

For test [3], the target named is T3, Chimera 2 (Homo sapiens, UniProt P36544, M226I/T225V). Description: Two electrode voltage clamp in Xenopus oocytes (POETs), agonist and modulator responses. Set-up: expressed in transfected cells; host or cells: Xenopus laevis oocytes (transient, A2).
For test [4], the target named is T3, Chimera 2. Kind of test: Membrane potential imaging (FLIPR-FMP) in HEK-293 cells. Set-up: expressed in transfected cells.
The target in test [5] is T1, Chimera 1. Described as above. Set-up: expressed in transfected cells.
Where [6] appears, read: HEK293, read-out: Agonist maximum efficacy, control (no modulator).
[7] abbreviates: HEK293, read-out: Agonist maximum efficacy, in the presence of 10 μM genistein.
The mark [8] stands for this setting: HEK293, read-out: Agonist maximum efficacy, in the presence of 1 mM 5-HI.
Where [9] appears, read: HEK293, read-out: Maximum efficacy (mean±S.E.M.), membrane potential imaging, HEK-293 cells.
The mark [10] stands for this setting: read-out: Agonist concentration-response EC50, control (no modulator).
Setting [11] is: read-out: Agonist concentration-response EC50, in the presence of 10 μM genistein.
The mark [12] stands for this setting: read-out: Agonist concentration-response EC50, in the presence of 1 mM 5-HI.
Where [13] appears, read: read-out: Agonist potency, membrane potential imaging: EC50 (95% C.I.), HEK-293 cells.
[14] abbreviates: read-out: Maximum efficacy (mean±S.E.M.), agonist-evoked current.

T2 sequence (P36544 23-502): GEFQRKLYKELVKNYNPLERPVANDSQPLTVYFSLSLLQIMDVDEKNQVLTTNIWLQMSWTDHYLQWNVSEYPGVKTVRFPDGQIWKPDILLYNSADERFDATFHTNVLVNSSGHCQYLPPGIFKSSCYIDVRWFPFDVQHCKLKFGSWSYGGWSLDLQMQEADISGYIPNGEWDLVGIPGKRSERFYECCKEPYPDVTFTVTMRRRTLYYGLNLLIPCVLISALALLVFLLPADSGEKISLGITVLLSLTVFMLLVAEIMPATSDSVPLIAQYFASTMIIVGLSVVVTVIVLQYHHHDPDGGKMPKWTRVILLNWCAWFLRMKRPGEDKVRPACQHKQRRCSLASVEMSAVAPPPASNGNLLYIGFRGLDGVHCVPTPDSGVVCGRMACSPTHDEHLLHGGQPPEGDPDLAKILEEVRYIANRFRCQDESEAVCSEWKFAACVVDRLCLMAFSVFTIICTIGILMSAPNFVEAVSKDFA
T1 sequence (P36544 with tags, fused parts or gaps T225V/M226I): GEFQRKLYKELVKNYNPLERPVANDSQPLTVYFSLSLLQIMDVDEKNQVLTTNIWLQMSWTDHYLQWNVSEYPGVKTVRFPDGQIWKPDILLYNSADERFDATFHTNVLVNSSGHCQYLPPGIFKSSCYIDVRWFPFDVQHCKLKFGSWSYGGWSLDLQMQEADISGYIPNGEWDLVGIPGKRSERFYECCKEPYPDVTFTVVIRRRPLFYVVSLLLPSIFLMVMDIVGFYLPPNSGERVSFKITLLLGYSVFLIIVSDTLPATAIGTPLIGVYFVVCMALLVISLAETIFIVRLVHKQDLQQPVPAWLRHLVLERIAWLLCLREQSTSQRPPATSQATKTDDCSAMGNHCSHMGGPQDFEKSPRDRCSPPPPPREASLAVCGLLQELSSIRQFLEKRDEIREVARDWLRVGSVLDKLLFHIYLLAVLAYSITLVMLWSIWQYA
T3 sequence (P36544 with tags, fused parts or gaps T225V/M226I): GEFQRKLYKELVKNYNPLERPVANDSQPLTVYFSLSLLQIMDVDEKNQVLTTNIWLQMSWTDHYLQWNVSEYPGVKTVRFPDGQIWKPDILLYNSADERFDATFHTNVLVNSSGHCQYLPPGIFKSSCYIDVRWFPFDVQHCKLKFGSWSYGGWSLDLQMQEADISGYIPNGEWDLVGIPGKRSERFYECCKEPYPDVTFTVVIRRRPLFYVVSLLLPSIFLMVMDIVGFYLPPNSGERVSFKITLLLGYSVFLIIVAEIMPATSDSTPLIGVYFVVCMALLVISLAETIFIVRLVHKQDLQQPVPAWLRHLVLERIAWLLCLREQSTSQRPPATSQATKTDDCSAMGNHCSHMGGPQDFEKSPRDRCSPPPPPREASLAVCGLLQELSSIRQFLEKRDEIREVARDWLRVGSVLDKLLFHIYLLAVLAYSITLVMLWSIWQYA

Turning to `CC[C@H](C)[C@H]1O[C@]2(CC[C@@H]1C)C[C@@H]1C[C@@H](C/C=C(\C)[C@@H](O[C@H]3C[C@H](OC)[C@@H](O[C@H]4C[C@H](OC)[C@@H](O)[C@H](C)O4)[C@H](C)O3)[C@@H](C)/C=C/C=C3\CO[C@@H]4[C@H](O)C(C)=C[C@@H](C(=O)O1)[C@]34O)O2` [IVM, ivermectin], the entries for the “ng of ACh curve after modulator” value (on Chimera 1 [1] (30 μM IVM); in test [2] (30 μM IVM); at Chimera 2 [3] (30 μM IVM)) were 1.8 ± 0.05, 1.4 ± 0.16 and 1.1 ± 0.12, respectively. Besides, the “Effect of modulator on ACh-evoked current (words)” value on Chimera 1 [1] (Xenopus oocytes) is listed as “absence of effects”; in test [2] (Xenopus oocytes), “substantial increase in the amplitude of the subsequent ACh-evoked current”.

As to `O=C(N[C@H]1CN2CCC1CC2)c1ccc(Cl)cc1` [PNU-282987], the Emax at Chimera 2 [4] (setting [6]) was 100 ± 0.01%; at Chimera 2 [4] (setting [7]), 207 ± 21%; at Chimera 2 [4] (setting [8]), 156 ± 4%; on Chimera 2 [4] (setting [9]), 99 ± 2%; on Chimera 1 [5] (setting [6]), 98 ± 2%; at Chimera 1 [5] (setting [7]), 87 ± 3%. Moreover, the values for the Emax at Chimera 1 [5] (setting [8]) and at Chimera 1 [5] (setting [9]) were 157 ± 13% and 107 ± 9%, respectively. Further, the entries for the “FLIPR-FMP pEC50 ± SEM” value at Chimera 2 [4] (HEK-293 cells) and at Chimera 1 [5] (HEK-293 cells) were 7.0 ± 0.04 and 6.8 ± 0.07, respectively. The EC50 on Chimera 2 [4] (setting [10]) was determined as 75 nM; at Chimera 2 [4] (setting [11]) it was 72 nM; at Chimera 2 [4] (setting [12]) it was 37 nM; on Chimera 2 [4] (setting [13]) it was 53 nM; at Chimera 1 [5] (setting [10]), 343 nM; at Chimera 1 [5] (setting [11]) it was 527 nM. Besides, the EC50 came out at 145 nM at Chimera 1 [5] (setting [12]) and 204 nM on Chimera 1 [5] (setting [13]).

`C[N+](C)(C)CCO` [Choline, choline]: the results for the “Electrophysiology (POETs) pEC50 ± SEM” value on Chimera 1 [1] (Xenopus oocytes) and at Chimera 2 [3] were 2.9 ± 0.06 and 3.7 ± 0.08, respectively. The EC50 on Chimera 1 [1] (read-out: Agonist potency, two electrode voltage clamp, Xenopus oocyte: EC50 (95% C.I.), peak current amplitude) came to 1.51 mM; in test [2] (Agonist potency, two electrode voltage clamp, Xenopus oocyte: EC50 (95% C.I.), peak current amplitude), 1.12 mM; on Chimera 2 [4] (setting [13]) it was 37800 nM; on Chimera 1 [5] (setting [13]), 285000 nM; on Chimera 2 [3] (read-out: Agonist potency, two electrode voltage clamp, Xenopus oocyte: EC50 (95% C.I.)) it was 214 µM. The Emax at Chimera 1 [1] (setting [14]) was 91 ± 7%; in test [2] (setting [14]), 81 ± 4%; on Chimera 2 [4] (setting [9]) it was 101 ± 6%; on Chimera 1 [5] (setting [9]) it was 132 ± 9%; on Chimera 2 [3] (setting [14]) it was 78 ± 4%. Besides, the “FLIPR-FMP pEC50 ± SEM” value at Chimera 2 [4] (HEK-293 cells) is 4.4 ± 0.04; on Chimera 1 [5] (HEK-293 cells), 2.9 ± 0.06.

On to `Br.CO[C@H]1CC=C2CCN3CCC4=C(CC(=O)OC4)[C@]23C1` [dihydro-β-erythroidine hydrobromide], for which, on Chimera 2 [3] (Xenopus oocytes, data not shown), the “Effect on the inward current evoked by NS-1738 alone” value is on record as “inhibited the inward current observed during the NS-1738 exposure”.

`c1ccc(-c2nnc(N3CCN4CCC3CC4)o2)cc1` [NS6784, 2-(1,4-diazabicyclo[3.2.2]nonan-4-yl)-5-phenyl-1,3,4-oxadiazole]: the Emax worked out at 107 ± 5% on Chimera 2 [4] (setting [9]) and 100% on Chimera 1 [5] (setting [9]). For the same compound, the “FLIPR-FMP pEC50 ± SEM” value on Chimera 2 [4] (HEK-293 cells) was found to be 7.1 ± 0.04; on Chimera 1 [5] (HEK-293 cells) it was 6.8 ± 0.10. In addition, the EC50 is 72 nM on Chimera 2 [4] (setting [13]) and 133 nM at Chimera 1 [5] (setting [13]).
